Here are results for 1 compound from patent US9974767B2, “Statins in the treatment of muscular dystrophies and myopathies” (University of Washington, priority 2014, dated 2018).

Holding throughout (assay type): in vivo, mouse
The test system of one assay is mdx mice. Kind of assay: Plasma creatine kinase (CK) activity as measure of whole-body muscle damage.
The subject of another assay is CD68. Nature of the assay: CD68 immunofluorescence of TA muscle sections (inflammation). The settings on record: mdx Sim vs mdx Con, 8 months treatment. The procedure: Next, we quantified the extent of inflammation, a key feature of the dystrophic muscle pathology, by immunofluorescence of TA muscle sections with CD68, a marker of macrophages and other inflammatory cells.
Muscles were imbedded in O.C.T compound and frozen in isopentane cooled in liquid nitrogen. Cryosections (10 μm thick) were placed on a glass side. Sections were fixed with either ice-cold methanol or 2% paraformaldehyde for 5 to 10 min. Some sections were stained with Haemotoxylin and Eosin (H & E) using standard procedures. For immunofluorescence, sections were incubated in blocking buffer (0.8% BSA and 1% fish gelatin in PBS) for 45 min. Primary antibodies; Fibronectin (Sigma), CD68 (Abcam), Caveolin3 (BD Biosciences), and Myosin Heavy Chain 1, 2A and 2B (Developmental Studies Hybridoma Bank) were added for 1 hr 30 min at room temperature. AlexaFluor conjugated secondary antibodies (Life Technologies) were then added for 1 hr 30 min. In some experiments, DAPI was also added to detect nuclei. […] For fluorescence quantification (CD68, fibronectin and myosin heavy chains), images were converted to grayscale in Image J and a threshold applied to calculate the area of fluorescence as a percent of the total area of the section. Fibers with central nuclei were expressed as a percent of total fibers with detectable nuclei (ie. both central and peripheral). […]

The test system of the next assay is LC3A/LC3B. Nature of the assay: LC3A and LC3B expression in diaphragm (autophagy), Western blot. The settings on record: old mdx Sim vs mdx Con. The text has this: Autophagy is an important cellular pathway for degrading damaged proteins, organelles and protein aggregates, which are then recycled by the cell for energy use. Impaired autophagy can trigger cell death and in skeletal muscle, proper regulation of autophagy is essential for normal cellular and physiological function. Both mdx and DMD muscles show evidence of reduced autophagy and treatment of mdx mice with a low protein diet triggered autophagy, which reduced inflammation and fibrosis and enhanced muscle function. […] A key protein marker of autophagic flux is the microtubule-associated protein 1A/1B light chain 3, which has a cytosolic form (LC3A) and a lapidated form (LC3B). An increased level of LC3B relative to LC3A is indicative of enhanced autophagic flux.
Tibialis anterior (TA) muscle function was measured in situ. Mice were anaesthetized with an intraperitoneal injection of Avertin (625 mg/kg) and placed on a heated metal platform (37° C.). The distal TA tendon was dissected free and sutured to the lever arm of the force and length control system (305C-LR, Aurora Scientific). […] Fatigue recovery was measured every 2 min up to 10 min post-fatigue. […] Membranes were incubated with enhanced chemiluminescence (ECL) reagent (Amersham) and bands were detected by the FluorChem M, imaging system (Protein Simple).

A further assay deals with H2O2 (ROS). Kind of assay: H2O2 levels in diaphragm muscle homogenates, amplex red assay. The settings on record: old mdx mice. The text has this: FIG. 14A. Western blot (top) showing the levels of the autophagy proteins LC3A (upper band) and LC3B (lower band) for mdx Con and mdx Sim. GAPDH is shown as a loading control. Pooled data (bottom) for LC3A and LC3B. **P<0.01 compared to mdx Con. FIG. 14B. Hydrogen peroxide (H2O2) levels in diaphragm muscle homogenates, as quantified with a fluorescent amplex red assay. *P<0.05 compared to mdx Con. FIG. 14C. Atrogin-1 mRNA levels in quadriceps muscles were quantified by qPCR and normalized to the internal control (HPRT). *P<0.05 compared to WT Con. **P<0.01 compared to WT Con.
To further explore this idea, we also measured the levels of the ROS (H2O2) in diaphragm muscle homogenates. […] This highlights important differences between dystrophic muscle, where statins reduce oxidative stress derived from NOX2, and normal muscle susceptible to statin myopathy, where mitochondrial ROS increases oxidative stress.

For `CCC(C)(C)C(=O)O[C@H]1C[C@@H](C)C=C2C=C[C@H](C)[C@H](CC[C@@H]3C[C@@H](O)CC(=O)O3)[C@H]21` [Simvastatin, simvastatin], the “reduction in plasma creatine kinase (CK) activity level” value with mdx mice (mdx Sim vs mdx Con, oral 5-10 mg/kg/day for 8 months from 3 weeks of age) turned out to be 85%. The “reduction of CK levels compared to untreated mdx mice” value in the assay with mdx mice (mdx mice, 8 months, drinking water 10 mg/kg/day) is reported as around 8 fold. Also, the “reduction of inflammatory cell levels (CD68)” value with CD68 was around 70%. In addition, in the assay on LC3A/LC3B, the “increase of LC3B” value came to 40%. In addition, in the assay with H2O2 (ROS), the “less H2O2 compared to mdx Con” value is given as 30%.
